These results are taken from publication PMC5902452, “In silico optimization of a guava antimicrobial peptide enables combinatorial exploration for peptide design” (Nature Communications, 2018).

The subject of series [1] is P. aeruginosa strain PAO1. The experiment in a line: Scarification skin infection mouse model. It counts as in vivo, female CD-1 mice. The method, then:
P. aeruginosa strain PAO1 was grown to an optical density at 600 nm (OD600) of 1 in tryptic soy broth medium. Subsequently cells were washed twice with sterile PBS, and resuspended to a final concentration of 5 × 10^7 CFU in 50 μL. To generate skin infection, female CD-1 mice (6 weeks old) were anesthetized with isoflurane and had their backs shaved. A superficial linear skin abrasion was made with a needle in order to damage the stratum corneum and upper layer of the epidermis. Five minutes after wounding, an aliquot of 50 μL containing 5 × 10^7 CFU of bacteria in PBS was inoculated over each defined area containing the scratch with a pipette tip. One day after the infection, peptides were administered to the infected area. Animals were euthanized and the area of scarified skin was excised 2 and 4 days post-infection, homogenized using a bead beater for 20 min (25 Hz), and serially diluted for CFU quantification. Two independent experiments were performed with four mice per group in each case. Statistical significance was assessed using a two-way ANOVA. Animals were maintained in accordance with the Guide for the Care and Use of Laboratory Animals in an AAALAC-accredited facility. All procedures were approved by the MIT’s Institutional Animal Care and Use Committee (IACUC), protocol number 1016-064-19.

Series [2] deals with erythrocytes. The conditions noted are these: cited from earlier work.
The subject of series [3] is E. coli ATCC 25922. The experiment in a line: Membrane polarization assay with DiSC3(5). In kind it is cell-based, Escherichia coli. The conditions noted are these: 5 µM, positive control. The method, then: When the cytoplasmic membrane is intact, the fluorescent probe DiSC3(5) accumulates into the cytoplasmic membrane and then aggregates, causing self-quenching of the fluorescence. In the presence of a membrane-depolarizing agent, DiSC3(5) is released into the medium, leading to an increase in fluorescence that can be monitored over time[59]. Briefly, exponentially growing bacteria were centrifuged (1000 × g, 10 min, 4 °C), washed with PBS, and resuspended in the same buffer to an A630 of 0.1; then 700 µL of bacteria were pre-incubated with 1 µM DiSC3(5) in the dark during 10 min at 37 °C, and then 100 µL of 1 mM KCl were added in order to equilibrate the cytoplasmic and external K^+ concentrations. […] Three independent experiments were performed and results correspond to a representative experiment with negative (PBS) and positive (melittin) controls.

Series [4] concerns E. coli ATCC 25922. The experiment in a line: SYTOX green uptake assay (membrane permeabilization). In kind it is cell-based, Escherichia coli. The conditions noted are these: 5 µM, positive control. The method, then:
SG is impermeant to live cells and when the cell membrane is damaged, this dye penetrates into the cell and binds to intracellular DNA, due to its high-affinity to nucleic acids, leading to an increase in fluorescence. Exponentially growing bacteria (6 × 10^5 cfu mL^−1) were resuspended in PBS after centrifugation (1000 × g, 10 min, 4 °C) and washing steps. About 792 μL of the bacterial suspension was pre-incubated with 8 μL of 100 μM SG during 30 min at 37 °C in the dark. […] Results correspond to a representative experiment with negative (PBS) and positive (melittin) controls. Three independent experiments were performed.

With “Pg-AMP1: guava glycine-rich antimicrobial peptide, UniProt P86030, template of the guavanins (RESPSSRMECYEQAERYGYGGYGGGRYGGGYGSGRGQPVGQGVERSHDDNRNQPR; UniProt P86030 1-55, looked up)”, the anti-infective activity result in series [1] (6.25 μg mL−1, 4 days post-infection) was “no activity”. In addition, the “effect on CFU counts / bacterial load (two-way ANOVA)” value in series [1] (doses 6.25, 25 and 100 µg mL−1, 4 days post-infection, two experiments, four mice per group) is given as “significant reduction of bacterial load only at higher concentrations”. Further, the “dose at which activity is kept after 4 days” value in series [1] (wound infection mouse model) turned out to be 25 µg/mL. Moreover, the hemolytic activity result in series [2] is on record as “hemolytic”.
In the case of melittin [reference compound], the “DiSC3(5) fluorescence change (membrane potential)” value in series [3] is given as “rapid increase in the fluorescence signal”. Also, the “SYTOX Green influx (membrane permeabilization)” value in series [4] is “rapid and maximal SG fluorescence signal”.
